{"source": "patent US12173018B2", "about": "“Penicillin-binding protein inhibitors” (priority 2018, dated 2024)", "key": {"[1]": {"system": "K. pneumoniae UMM", "test": "microbe, parasite or virus in culture", "type": "cell-based", "conditions": "Klebsiella pneumoniae; K. pneumoniae UMM producing SHV-5 and KPC-2; read-out: MIC K. pneumoniae UMM", "how_it_was_run": "(§1)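 Colonies from Mueller Hinton II agar were grown 3-5 hours at 37° C in cation-supplemented broth, adjusted by OD600, then added to 2-fold compound dilutions at 5×10^5 CFU/mL. After 16-20 hours at 37° C, MICs were scored visually.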"}, "[2]": {"system": "E. coli 901C", "test": "microbe, parasite or virus in culture", "type": "cell-based", "conditions": "Escherichia coli; hyper-permeable E. coli 901C, broth microdilution; read-out: MIC E. coli 901C", "how_it_was_run": "as §1"}, "[3]": {"system": "E. coli AG100A", "test": "microbe, parasite or virus in culture", "type": "cell-based", "conditions": "Escherichia coli, read-out: MIC E. coli AG100A", "how_it_was_run": "as §1"}, "[4]": {"system": "E. coli ATCC 25922", "test": "Broth microdilution MIC, E. coli ATCC 25922", "type": "cell-based", "conditions": "Escherichia coli, ATCC25922; E. coli ATCC 25922, broth microdilution; read-out: MIC E. coli 25922", "how_it_was_run": "as §1"}, "[5]": {"system": "engineered strain of Escherichia coli harboring CTX-M15", "test": "microbe, parasite or virus in culture", "type": "cell-based", "conditions": "Escherichia coli, read-out: Microbiological Activity (MIC in mg/L), E. coli DH5α/pLBII-CTX-M15, engineered strain producing CTX-M15"}, "[6]": {"system": "E. coli DH5α empty pLBII vector control strain", "test": "microbe, parasite or virus in culture", "type": "cell-based, Escherichia coli", "conditions": "Escherichia coli, read-out: Microbiological Activity (MIC in mg/L), E. coli DH5α/pLBII", "how_it_was_run": "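MIC was the lowest concentration visibly free of growth after 16–20 h at 37 °C, against 5×10^5 CFU/mL of the empty-pLBII DH5α control strain. Twofold compound dilutions were made in cation-adjusted Mueller-Hinton broth.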"}, "[7]": {"target": "E. coli PBP1b (Escherichia coli (strain K12), UniProt P02919)", "sequence (P02919 whole entry)": "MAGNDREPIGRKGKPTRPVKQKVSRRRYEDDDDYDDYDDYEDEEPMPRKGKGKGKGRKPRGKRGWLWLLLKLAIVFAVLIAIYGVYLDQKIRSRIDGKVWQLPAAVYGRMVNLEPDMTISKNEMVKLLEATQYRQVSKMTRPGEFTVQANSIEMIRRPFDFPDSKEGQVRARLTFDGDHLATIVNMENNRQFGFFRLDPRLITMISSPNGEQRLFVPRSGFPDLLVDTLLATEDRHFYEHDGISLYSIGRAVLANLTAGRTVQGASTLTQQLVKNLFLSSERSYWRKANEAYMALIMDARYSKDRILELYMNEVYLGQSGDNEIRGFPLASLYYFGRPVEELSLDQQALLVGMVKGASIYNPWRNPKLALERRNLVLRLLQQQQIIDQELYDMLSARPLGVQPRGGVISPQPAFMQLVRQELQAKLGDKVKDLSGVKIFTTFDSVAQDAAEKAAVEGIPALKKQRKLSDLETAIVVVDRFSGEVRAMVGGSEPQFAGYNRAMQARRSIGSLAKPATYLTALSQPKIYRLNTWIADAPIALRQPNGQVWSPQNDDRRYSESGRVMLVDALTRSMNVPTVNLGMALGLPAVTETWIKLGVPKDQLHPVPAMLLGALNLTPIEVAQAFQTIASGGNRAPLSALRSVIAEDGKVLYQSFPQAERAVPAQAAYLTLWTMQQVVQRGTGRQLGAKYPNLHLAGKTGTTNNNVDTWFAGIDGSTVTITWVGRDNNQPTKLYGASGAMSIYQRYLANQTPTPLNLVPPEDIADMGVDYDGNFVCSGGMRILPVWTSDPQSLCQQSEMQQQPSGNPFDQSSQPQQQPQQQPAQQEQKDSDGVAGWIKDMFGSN", "test": "Radioligand competition binding assay with 14C-labeled boronic acid probe, PBP1b"}, "[8]": {"system": "E. coli AG100", "test": "Broth microdilution MIC, E. coli AG100 (wild-type parent)", "type": "cell-based", "conditions": "Escherichia coli; wild-type parent E. coli AG100, broth microdilution; read-out: MIC E. coli AG100", "how_it_was_run": "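Starting inoculum of 5×10^5 CFU/mL, from colonies grown 3-5 h in Mueller-Hinton broth with divalent cations, added to two-fold compound dilution series.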"}, "[9]": {"target": "E. coli PBP3 (Escherichia coli (strain K12), UniProt P0AD68)", "sequence (P0AD68 whole entry)": "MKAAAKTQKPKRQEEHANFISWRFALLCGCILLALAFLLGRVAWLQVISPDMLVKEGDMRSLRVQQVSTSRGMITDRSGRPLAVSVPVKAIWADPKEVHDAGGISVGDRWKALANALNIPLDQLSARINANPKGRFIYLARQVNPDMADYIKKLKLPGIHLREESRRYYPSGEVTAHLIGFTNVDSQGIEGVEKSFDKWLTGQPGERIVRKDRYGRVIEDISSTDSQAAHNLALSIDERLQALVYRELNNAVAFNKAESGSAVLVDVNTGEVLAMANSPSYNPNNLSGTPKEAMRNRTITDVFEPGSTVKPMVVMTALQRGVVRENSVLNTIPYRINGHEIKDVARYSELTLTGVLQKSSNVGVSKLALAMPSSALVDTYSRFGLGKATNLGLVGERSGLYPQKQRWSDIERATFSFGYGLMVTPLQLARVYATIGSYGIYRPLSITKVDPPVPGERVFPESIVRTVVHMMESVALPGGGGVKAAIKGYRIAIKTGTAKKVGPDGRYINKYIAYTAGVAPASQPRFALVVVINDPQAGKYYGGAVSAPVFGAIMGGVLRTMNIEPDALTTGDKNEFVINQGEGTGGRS", "test": "E. coli PBP3 Bocillin-FL fluorescence polarization competition binding assay", "how_it_was_run": "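FP competition: 1.5 μM PBP, 0.1 μM Bocillin-FL, cpd 0–1000 μM; 50 mM Hepes pH 8.0/300 mM NaCl/5% glycerol. Read 490/520 nm immediately after Bocillin-FL addition, 60 min. EC50 = cpd conc. lowering probe binding.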"}, "[10]": {"target": "E. coli PBP1a (Escherichia coli (strain K12), UniProt P02918)", "sequence (P02918 whole entry)": "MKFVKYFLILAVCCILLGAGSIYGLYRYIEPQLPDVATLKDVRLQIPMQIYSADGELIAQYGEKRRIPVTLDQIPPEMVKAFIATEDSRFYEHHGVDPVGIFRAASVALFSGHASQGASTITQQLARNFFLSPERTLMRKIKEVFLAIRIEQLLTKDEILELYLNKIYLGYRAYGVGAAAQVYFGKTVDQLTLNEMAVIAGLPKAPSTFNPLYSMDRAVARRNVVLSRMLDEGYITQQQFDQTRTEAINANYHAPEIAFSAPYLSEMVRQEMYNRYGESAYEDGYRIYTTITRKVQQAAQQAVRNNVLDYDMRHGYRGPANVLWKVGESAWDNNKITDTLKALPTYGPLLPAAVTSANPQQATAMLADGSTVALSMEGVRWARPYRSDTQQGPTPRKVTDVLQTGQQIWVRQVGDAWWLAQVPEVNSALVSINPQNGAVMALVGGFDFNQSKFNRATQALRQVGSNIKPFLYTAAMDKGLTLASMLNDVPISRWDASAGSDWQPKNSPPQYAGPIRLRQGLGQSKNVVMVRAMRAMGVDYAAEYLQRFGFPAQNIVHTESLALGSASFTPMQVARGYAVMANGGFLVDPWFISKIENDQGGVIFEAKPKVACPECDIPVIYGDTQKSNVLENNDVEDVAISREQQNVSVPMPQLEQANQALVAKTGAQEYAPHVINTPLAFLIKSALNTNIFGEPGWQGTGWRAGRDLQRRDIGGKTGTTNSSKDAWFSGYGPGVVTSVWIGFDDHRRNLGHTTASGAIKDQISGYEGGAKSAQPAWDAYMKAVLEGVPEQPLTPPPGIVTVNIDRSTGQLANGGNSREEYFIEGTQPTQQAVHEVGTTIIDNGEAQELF", "test": "Radioligand competition binding assay with 14C-labeled boronic acid probe, PBP1a", "source_text": "To determine the ability of boronic acid-based test PBP inhibitors to bind Penicillin Binding Proteins (PBPs), a radio-labelled boronic acid PBP inhibitor\n[drawing 751] was used in competition binding assays to determine boronic acid PBP inhibitor binding to PBP1a or PBP1b from Escherichia coli. PBP1a and PBP1b were purified as described previously (Bertsche, U.; et al., J. Biol. Chem. 2005, 280 (45), 38096-38101; Born, P.; et al., J. Biol. Chem. 2006. 281 (37), 26985-26993). To establish assay conditions for competition binding, an enzyme titration/saturation binding experiment was performed. Saturation binding was performed in a buffer comprised of 20 mM Tris (pH 7.5), 500 mM NaCl and 0.1% (v/v) TritonX-100, with PBP1a/PBP1b at a final concentration of 0.1 μM and Compound A at final concentrations ranging from 0-100 μM. Mixtures were incubated for 60 minutes, then applied to Zeba Spin Desalting columns or plates (ThermoFisher Scientific) and centrifuged at 1000-1500×g for 2 minutes. The flow through, containing PBP bound with Compound A, was recovered and 100 μL mixed with 5 mL of UltimaGold liquid scintillation cocktail (Perkin Elmer), and the radioactivity counted using a Beckman Coulter LS 6500 Multipurpose scintillation counter. PBP binding of Compound A approached saturation at 20 μM of ^14C-labeled probe. The competition binding assay was validated using the beta-lactam ampicillin, with Compound A at a final concentration of 20 μM, PBP1a/PBP1b at a final concentration of 0.1 μM. PBP1a/PBP1b was incubated with ampicillin in a 96-well microplate for 60 minutes, then Compound A was added and the mixtures incubated for an additional 60 minutes. The mixtures were then applied to Zeba Spin desalting plates and centrifuged at 1000×g for 2 minutes. The flow through was recovered and 100 μl mixed with 5 ml of UltimaGold liquid scintillation cocktail and the radioactivity counted. […] Binding assays with boronic acid PBP inhibitors were performed in an identical fashion. The potency of boronic acid PBP inhibitors was reported as the EC50 value."}, "[11]": {"conditions": "fluorescence polarization competition binding with Bocillin-FL, read-out: E. coli K12 PBP3 Potency"}}, "note": "Where a name gives a salt, the structure may show the parent alone. Read-outs that look alike come from different tables or passages of the source."}
{"compound": "CCN1CCN(C(=O)NC(C(=O)N[C@H]2Cc3cccc(C(=O)O)c3OB2O)c2cc(O)c(O)c(Cl)c2)C(=O)C1=O", "note": "(stereo partly drawn) [Example 45, (3R)-3-(2-(3-chloro-4,5-dihydroxyphenyl)-2-(4-ethyl-2,3-dioxopiperazine-1-carboxamido)acetamido)-2-hydroxy-3,4-dihydro-2H-benzo[e][1,2]oxaborinine-8-carboxylic acid]", "values": [{"measurement": "MIC", "setting": "[1]", "result": "8 to 16", "unit": "µg/mL"}, {"measurement": "MIC", "setting": "[2]", "result": "0.5 to 1", "unit": "µg/mL"}, {"measurement": "MIC", "setting": "[3]", "result": "8 to 16", "unit": "µg/mL"}, {"measurement": "MIC", "setting": "[4]", "result": "8 to 16", "unit": "µg/mL"}, {"measurement": "MIC", "setting": "[5]", "result": "8 to 16", "unit": "mg/L"}, {"measurement": "MIC", "setting": "[6]", "result": "8 to 16", "unit": "mg/L"}, {"measurement": "EC50", "setting": "[7]", "result": "< 10", "unit": "µM"}, {"measurement": "MIC", "setting": "[8]", "result": "8 to 16", "unit": "µg/mL"}, {"measurement": "EC50", "setting": "[9]; [11]", "result": "< 30", "unit": "µM"}, {"measurement": "EC50", "setting": "[10]", "result": "< 10", "unit": "µM"}]}
{"compound": "CCN1CCN(C(=O)NC(C(=O)N[C@H]2Cc3cccc(C(=O)O)c3OB2O)c2ccc(OC)cc2)C(=O)C1=O", "note": "(stereo partly drawn) [Example 26, (3R)-3-(2-(4-ethyl-2,3-dioxopiperazine-1-carboxamido)-2-(4-methoxyphenyl)acetamido)-2-hydroxy-3,4-dihydro-2H-benzo[e][1,2]oxaborinine-8-carboxylic acid]", "values": [{"measurement": "MIC", "setting": "[5]", "result": "128 to 256", "unit": "mg/L"}, {"measurement": "MIC", "setting": "[6]", "result": "128 to 256", "unit": "mg/L"}, {"measurement": "EC50", "setting": "[9]", "result": "30 to 500", "unit": "µM"}, {"measurement": "EC50", "setting": "[10]", "result": "< 10", "unit": "µM"}]}
{"compound": "CCN1CCN(C(=O)NC(C(=O)N[C@H]2Cc3cccc(C(=O)O)c3OB2O)c2ccc(O)c(O)c2)C(=O)C1=O", "note": "(stereo partly drawn) [Example 22, (3R)-3-(2-(3,4-dihydroxyphenyl)-2-(4-ethyl-2,3-dioxopiperazine-1-carboxamido)acetamido)-2-hydroxy-3,4-dihydro-2H-benzo[e][1,2]oxaborinine-8-carboxylic acid]", "values": [{"measurement": "MIC", "setting": "[1]", "result": "8 to 16", "unit": "µg/mL"}, {"measurement": "MIC", "setting": "[2]", "result": "0.5 to 1", "unit": "µg/mL"}, {"measurement": "MIC", "setting": "[3]", "result": "2 to 4", "unit": "µg/mL"}, {"measurement": "MIC", "setting": "[4]", "result": "8 to 16", "unit": "µg/mL"}, {"measurement": "MIC", "setting": "[5]", "result": "8 to 16", "unit": "mg/L"}, {"measurement": "MIC", "setting": "[6]", "result": "8 to 16", "unit": "mg/L"}, {"measurement": "EC50", "setting": "[7]", "result": "< 10", "unit": "µM"}, {"measurement": "MIC", "setting": "[8]", "result": "8 to 16", "unit": "µg/mL"}, {"measurement": "EC50", "setting": "[9]; [11]", "result": "< 30", "unit": "µM"}, {"measurement": "EC50", "setting": "[10]", "result": "< 10", "unit": "µM"}]}
{"compound": "CCN1CCN(C(=O)NC(C(=O)N[C@H]2Cc3cccc(C(=O)O)c3OB2O)c2cc(O)c(O)cc2Cl)C(=O)C1=O", "note": "(stereo partly drawn) [Example 85, (3R)-3-(2-(2-chloro-4,5-dihydroxyphenyl)-2-(4-ethyl-2,3-dioxopiperazine-1-carboxamido)acetamido)-2-hydroxy-3,4-dihydro-2H-benzo[e][1,2]oxaborinine-8-carboxylic acid]", "values": [{"measurement": "MIC", "setting": "[1]", "result": "32 to 64", "unit": "µg/mL"}, {"measurement": "MIC", "setting": "[2]", "result": "0.5 to 1", "unit": "µg/mL"}, {"measurement": "MIC", "setting": "[3]", "result": "8 to 16", "unit": "µg/mL"}, {"measurement": "MIC", "setting": "[4]", "result": "8 to 16", "unit": "µg/mL"}, {"measurement": "MIC", "setting": "[5]", "result": "32 to 64", "unit": "mg/L"}, {"measurement": "EC50", "setting": "[7]", "result": "< 10", "unit": "µM"}, {"measurement": "MIC", "setting": "[8]", "result": "8 to 16", "unit": "µg/mL"}, {"measurement": "EC50", "setting": "[10]", "result": "< 10", "unit": "µM"}]}
{"compound": "CC1(C)S[C@@H]2[C@H](NC(=O)[C@H](N)c3ccccc3)C(=O)N2[C@H]1C(=O)O", "note": "[ampicillin, reference compound]", "values": [{"measurement": "EC50", "setting": "[7]; assay validation, Compound A 20 μM, PBP1a/PBP1b 0.1 μM, read-out: EC50 (inhibition of binding of Compound A) PBP1b", "result": "< 0.5", "unit": "µM"}, {"measurement": "EC50", "setting": "[9]; assay validation with beta-lactams, PBP 1.5 μM, Bocillin-FL 0.1 μM, read-out: EC50 for PBP3 (reduction of Bocillin-FL binding)", "result": 1.4, "unit": "µM"}, {"measurement": "EC50", "setting": "[10]; assay validation, Compound A 20 μM, PBP1a/PBP1b 0.1 μM, read-out: EC50 (inhibition of binding of Compound A) PBP1a", "result": "< 0.5", "unit": "µM"}]}
{"compound": "CCN1CCN(C(=O)NC(C(=O)N[C@H]2Cc3cccc(C(=O)O)c3OB2O)c2ccc(O)c(OCCN)c2)C(=O)C1=O", "note": "(stereo partly drawn) [Example 49, (3R)-3-(2-(3-(2-aminoethoxy)-4-hydroxyphenyl)-2-(4-ethyl-2,3-dioxopiperazine-1-carboxamido)acetamido)-2-hydroxy-3,4-dihydro-2H-benzo[e][1,2]oxaborinine-8-carboxylic acid]", "values": [{"measurement": "MIC", "setting": "[6]", "result": "32 to 64", "unit": "mg/L"}, {"measurement": "EC50", "setting": "[9]", "result": "30 to 500", "unit": "µM"}, {"measurement": "EC50", "setting": "[10]", "result": "< 10", "unit": "µM"}]}
{"compound": "CCN1CCN(C(=O)N[C@H](CCN)C(=O)N[C@H]2Cc3cccc(C(=O)O)c3OB2O)C(=O)C1=O", "note": "[Example 17, (R)-3-((R)-4-amino-2-(4-ethyl-2,3-dioxopiperazine-1-carboxamido)butanamido)-2-hydroxy-3,4-dihydro-2H-benzo[e][1,2]oxaborinine-8-carboxylic acid, trifluoroacetic acid salt]", "values": [{"measurement": "MIC", "setting": "[5]", "result": "128 to 256", "unit": "mg/L"}, {"measurement": "MIC", "setting": "[6]", "result": "> 512", "unit": "mg/L"}, {"measurement": "EC50", "setting": "[9]; [11]", "result": "> 500", "unit": "µM"}, {"measurement": "EC50", "setting": "[10]", "result": "< 10", "unit": "µM"}]}
